From paper PMC3514216, “SRC Homology 2 Domain Binding Sites in Insulin, IGF-1 and FGF receptor mediated signaling networks reveal an extensive potential interactome” (Cell Communication and Signaling : CCS, 2012)

Columns and labels:
Ptpn11_N SH2 domain = target: T1, Ptpn11_N SH2 domain (Homo sapiens, UniProt Q06124); test: SPOT peptide array; type: binding; conditions: GST-SH2 0.25 μM; for Array positive: membrane-bound peptide, 1 mM DTT, LiCor read-out; for Peptide array intensity (X mean): spot intensity as factor of array mean
T1 sequence (Q06124 6-102 limits assumed): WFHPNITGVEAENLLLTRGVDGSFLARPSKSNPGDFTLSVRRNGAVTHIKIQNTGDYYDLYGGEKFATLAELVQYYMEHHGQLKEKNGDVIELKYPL
Source text: (§1) The use of addressable peptide arrays is a reproducible and semi-quantitative approach that has been extensively validated for studying protein interactions with peptide ligands. To investigate connections between SH2 domain proteins and their putative phosphorylated docking sites on cell surface receptors, we developed addressable arrays consisting of 192 phosphotyrosine peptides. This peptide set was assembled using 71 phosphotyrosine peptide motifs corresponding to all of the cytoplasmic tyrosine residues within the FGF receptors (FGFR1-4), insulin receptor (InsR) and IGF-1 receptor (IGF-1R) (Figure 1A). Activation of these receptors results in the phosphorylation of associated scaffold proteins, and so 75 phosphotyrosine peptides corresponding to a comprehensive list of tyrosine residues within insulin receptor substrates (IRS-1 and IRS-2) and fibroblast receptor substrates (FRS-2 and FRS-3) were included. In addition, 33 phosphotyrosine peptides were incorporated from the downstream signaling proteins PLC-γ1, p130Cas (BCAR1) and p62DOK1. […] These control peptides provide a reference and establish the empirical cut-off for designated binding interactions (Table 1). No discrimination was made against peptides on the basis of reported phosphorylation state in order to examine a diverse and unbiased set of motifs. The resulting set of 192 phosphotyrosine peptides and their corresponding position in the proteins of origin is noted in Additional file 1: Table S1. Addressable arrays were synthesized as membrane-bound 11-mer peptides using the SPOT synthesis technique. While the majority of SH2 domains recognize residues C-terminal to the phosphotyrosine in their cognate peptide ligands, additional contacts between SH2 domains and residues N-terminal to the phosphotyrosine are observed for the SH2 domain of Sh2d1a (SAP) and cannot be ruled out in other cases. Peptides were synthesized with six flanking residues C-terminal to the phosphotyrosine and four residues N-terminal to the phosphotyrosine.
SH2 domains were arrayed as GST fusion proteins and detected using anti-GST primary antibodies and near-infrared labeled secondary antibodies. In an effort to present a dataset with minimal false positives, we chose an empirical cutoff based on the array average across all peptide spots to classify interactions (Figure 1A). In cases where the intensity of the signal for an individual SH2-domain binding event exceeded the mean intensity of all the peptides on the membrane by three-fold were scored as “array positives” [22]. Non-binding was judged in cases where the intensity of a spot was less than the mean intensity of all spots on the membrane and these were scored as “array negatives”. Peptides with signal intensities between 1X and 3X mean were scored as “indeterminate” and ascribed as neither array positive binding interactions nor array-negative non-binders. […] This signature may be indicative of promiscuity differences between phosphopeptides or there may be a subset of peptides which interact in a nonspecific fashion with either the GST fusion tag or one of the antibodies used for detection, resulting in false positives. Consistent with our goal of reducing the errors associated with identifying false-positives, we probed three separate arrays with three separate preps of the GST fusion tag alone. Potentially non-specificly interacting peptides (so-called ‘sticky’ peptides) were identified as any that bound to GST with above mean intensity in two out of three separate trials. This approach identifies any peptides which interact with GST or either of the recognition antibodies, a known confounding factor for downstream analysis. This conservative approach allows us to score many significant peptides as ‘binders’ which may have been indeterminate before when incorporating the ‘sticky’ peptides into the array average. […]

panel of 50 SH2 domains = test: SPOT peptide array probed with each of 50 GST-SH2 domains; type: binding; conditions: SPOT192 peptide array; for SH2 Domains >3X: list of GST-SH2 domains with spot intensity >3X array mean (array-positive); for 2X < SH2 Domains < 3X: list of GST-SH2 domains with spot intensity between 2X and 3X array mean (indeterminate range)
Source text: as §1
To assess the potential network of SH2 domain interactions we selected 50 SH2 domains representing 28 of the 38 families of SH2 domains (Figure 1B) all of which we have previously shown can be expressed and purified. These include a number of extensively studied SH2 domains (Src, Grb2, PLCγ), as well as a number of less studied SH2 domains from proteins such as Shd, She, Shf, Slnk (Sh2d6), Sh2d1a (SAP), Sh2d1b (Eat-2), and Brdg1. To address potential variability in specificity within families we employed all members from the SHB, CRK, GRB2, SRC and ABL families (families are indicated with complete Capitalized lettering).
SH2 domains were arrayed as GST fusion proteins and detected using anti-GST primary antibodies and near-infrared labeled secondary antibodies. In an effort to present a dataset with minimal false positives, we chose an empirical cutoff based on the array average across all peptide spots to classify interactions (Figure 1A). In cases where the intensity of the signal for an individual SH2-domain binding event exceeded the mean intensity of all the peptides on the membrane by three-fold were scored as “array positives” [22]. Non-binding was judged in cases where the intensity of a spot was less than the mean intensity of all spots on the membrane and these were scored as “array negatives”. Peptides with signal intensities between 1X and 3X mean were scored as “indeterminate” and ascribed as neither array positive binding interactions nor array-negative non-binders. […] This signature may be indicative of promiscuity differences between phosphopeptides or there may be a subset of peptides which interact in a nonspecific fashion with either the GST fusion tag or one of the antibodies used for detection, resulting in false positives. […]

Substance | Array positive (Ptpn11_N SH2 domain) | Peptide array intensity (X mean) (Ptpn11_N SH2 domain) | SH2 Domains >3X (panel of 50 SH2 domains) | 2X < SH2 Domains < 3X (panel of 50 SH2 domains)
APVSpYADMRTG [11-mer phosphotyrosine peptide, IRS-1 (Y1012)] | No (Peptide spots with average intensity values between 1X-3X the array mean were defined as ‘indeterminate’. Those with intensities below 1X mean were defined as array negative) | 0.59 X Mean | – | –
SIEEpYTEMMPA [11-mer phosphotyrosine peptide, IRS-1 (Y551)] | No (Peptide spots with average intensity values between 1X-3X the array mean were defined as ‘indeterminate’. Those with intensities below 1X mean were defined as array negative) | 0.56 X Mean | – | –
ELSNpYICMGGK [11-mer phosphotyrosine peptide, IRS-1 (Y465)] | No (Peptide spots with average intensity values between 1X-3X the array mean were defined as ‘indeterminate’. Those with intensities below 1X mean were defined as array negative) | 0.9 X Mean | – | –
DPNGpYMMMSPS [11-mer phosphotyrosine peptide, IRS-1 (Y662)] | No (Peptide spots with average intensity values between 1X-3X the array mean were defined as ‘indeterminate’. Those with intensities below 1X mean were defined as array negative) | 0.54 X Mean | – | –
NPGNpYTARIQA [B08] | – | – | BRDG1, MIST, PLCG2_N, PTPN11_C, SHF, SHD, SYK_C | DAPP1, Sh2b, SH3BP2, SHB, SHE
MEYSpYDINRVP [E22] | – | – | ABL1 | –
VSCApYQVARGM [F14] | – | – | BRDG1 | CRK, ITK, MIST, PLCG2_N, PLCG2_C, SHF, SYK_C
RGMEYpLASKKA [E12] | – | – | BCAR3, BRDG1, TENC1, ZAP70_N | BMX, FER, MIST, PLCG2_N, SHB, SHF
FKRSpYEEHIPY [B05] | – | – | SHB, SHF, SHD, SHE | BRDG1, TENC1
RLEYpYENEKKW [B20] | – | – | ABL1, ABL2, BMX, BRK, FER, FGR, HCK, GADS, GRAP, GRB2, GRB7, MATK, MIST, PI3K1_N, PI3K1_C, RIN1, SH2D1B, SH2D2A, SH3BP2, SHF, TENC1, VAV1 | BCAR3, BRDG1, CRK, ITK, PLCG2_N, PTPN11_N, PTPN11_C, Sh2b, SHC1, SHD, SRC
YPEDpYGDIEIG [D17] | – | – | BMX, BRK, FGR, SLNK, SRC | BLK, FER, FYN, HCK, GRB7, ITK, LCK, LYN, RASA1_N, SH2D1B, SHC1, YES
PVAPpYWTSPEK [E01] | – | – | – | ABL1
RGMEpYLASQKC [E24] | – | – | BRDG1, SHF | BCAR3, PLCG2_N, PLCG2_C, SHB, SHD, ZAP70_N
SPGEpYVNIEFG [C16] | – | – | BLK, BMX, DAPP1, FGR, GADS, GRAP, GRB2, GRB7, ITK, MIST, PI3K1_N, PI3K1_C, PLCG2_C, PTPN11_N, PTPN11_C, RASA1_N, RASA1_C, Sh2b, SH2D2A, SHB, SHF, SHD, SHE, SYK_C, VAV1, YES | ABL1, ABL2, BRK, FYN, HCK, LCK, LYN, SH2D1B, SRC, TENC1
ELILpYTRKRDS [F20] | – | – | BCAR3, BRDG1, MIST, PLCG2_N, SHF, TENC1 | BMX, DAPP1, PLCG2_C, PTPN11_C, RASA1_C, SHB, SHD
DDPSpYVNVQNL [A06] | – | – | GADS, GRAP, GRB2, SH2D1B | –
NGLNpYIDLDLV [C22] | – | – | BCAR3, ITK, PLCG2_C, PTPN11_N, RASA1_N, Sh2b, SHB, SHF, SHD, SHE, TENC1 | DAPP1, FGR, LCK, LYN, RASA1_C, SYK_C, YES
PVLSpYYSLPRS [C12] | – | – | CRK, CRKL, Sh2b, SYK_C | BRDG1, SHF
RQLNpYIQVDLE [G09] | – | – | BCAR3, BMX, BRDG1, DAPP1, ITK, MIST, PLCG2_C, PTPN11_N, RASA1_N, SHB, SHF, SHD, SHE, SYK_C, VAV1, ZAP70_N | PTPN11_C, Sh2b
VSEEpYLDLRLT [F18] | – | – | BMX, RASA1_N, SHB, SHD | –
PKCTpYENVTGG [G13] | – | – | GADS, GRB2, GRB7, SH3BP2 | GRAP, MIST
STVEpYSTVVHS [A11] | – | – | BRDG1, BRK, CRK, PTPN11_N, PTPN11_C, SH2D1B, SHC1, SHIP1 | ABL2, RIN1
